Measurements reported in paper PMC10208956, “Microbial peptides activate tumour-infiltrating lymphocytes in glioblastoma” (Nature, 2023).

Legend:
Format in all cases: cell-based, human
TCC88 = assay: Cytokine and chemokine secretion of TCC88 after peptide stimulation; settings: TCC88 supernatant after peptide stimulation; no peptide control subtracted; Fig. 3e
From the text: (§1) Fig. 3 Bacteria-derived and microbiota-derived peptides can stimulate TCC88 as well as the tumour antigen. a, Peptides with the highest predicted stimulatory scores were identified by searching various databases (see Methods). Numbers of unique 10-mer peptides within each database, synthesized peptides, TCC88 stimulatory peptides and the corresponding percentage of stimulatory peptides within each database are shown. […] Cytokine and chemokine secretion of TCC88 was examined and compared upon stimulation with these three different antigens. A specific amount of each cytokine and chemokine (pg ml^−1) was calculated by subtracting the cytokines in the negative control cultures (no peptide control). f, Cytotoxicity of TCC88 against the autologous tumour cell line after stimulation with 2 µM of SIN3A* and HGM3 (data represent the mean percentage of two replicate wells). E:T, effector to target. g, TCC88 was tested with HGM3 (10 µM) or SIN3A* (10 µM) peptides or both together (each 10 µM), and ^3H-thymidine incorporation was measured after 3 days (data represent the mean SI value of three replicate wells ± s.e.m.). Also see Extended Data Figs. 3 and 4. Source data
Supernatants from each experiment were harvested a day before adding thymidine and frozen at −20 °C. Cytokines were measured using ELISA for human IFNγ ELISA MAX (BioLegend), human GM-CSF DuoSet ELISA (R&D Systems) and bead-based assays. A Synergy H1 hybrid multi-mode reader (Agilent) was used to measure the absorbance. The LEGENDplex Multi-analyte Flow Assay kit (BioLegend) is a 13-plex human TH cytokine panel, which includes IFNγ, TNF, IL-2, IL-4, IL-5, IL-6, IL-9, IL-10, IL-13, IL-17A, IL-17F, IL-21 and IL-22. […] LSR Fortessa Flow Cytometer (BD Biosciences) was used to measure cytokines, and data were analysed using FlowJo (Tree Star). The Human XL Cytokine Luminex Performance Assay Fixed Panel (R&D Systems) contains 45 analytes covering a broad range of various chemokines and cytokines.

[1] = system: autologous glioblastoma cells; assay: T cell cytotoxicity assay of TCC88 against the autologous tumour cell line; settings: TCC88 stimulated with 2 µM peptide for 72 h; E:T 1:1 and 5:1; 24 h; duplicates; Fig. 3f
From the text: as §1, with “Source data […]” for “Source data”

[2] = system: sorted CD4+ PE and FITC TCRVβ+ TILs; assay: Proliferation of TCRBV-sorted CD4+ TILs (without TCRBV6.1 and TCRBV6.2); settings: sheet 6b
From the text: TILs expressing specific TCRBVs were isolated from bulk TILs using a panel of 22 fluorescently labelled TCRBV antibodies that detect 27 different TCRBVs. Twelve TCRBV antibodies were labelled with PE and 10 with FITC (Beckman Coulter). […] After another wash, cells were stained with CD4 (1:100) (APC anti-human CD4, eBioscience), CD8 (1:100) (Pacific blue anti-human CD8, BioLegend), TCRBV-PE (1:25) (Beckman Coulter) and TCRBV-FITC (1:25) (Beckman Coulter) antibodies (Supplementary Table 12) for 30 min. Finally, cells were sorted, seeded at 5 × 10^4 cells per well in T cell medium without h-IL-2 and rested for 1 day before stimulation with 2 × 10^5 cells per well of irradiated autologous PBMCs (45 Gy) and peptide (10 µM).
Two populations of CD4^+ PE-TCRVβ^+ and CD4^+ FITC-TCRVβ^+ were sorted and later mixed together. […] Specific amount of each cytokine/chemokine (pg/ml) was calculated by subtracting the cytokines in the negative control cultures (no peptide control). Source data

## Ac-LLEFNHSLGM-NH2 [HGM3]
TCC88
  CCL20/MIP-3α: 6.47 pg/mL
  CD40 Ligand: 1548.01 pg/mL
  CXCL1/GROα: 80.23 pg/mL
  CXCL2/GROβ: 106.77 pg/mL
  CXCL8/IL-8: 0 pg/mL
  CXCL10/IP-10: 30.99 pg/mL
  Flt-3 Ligand: 108.26 pg/mL
  Fractalkine: 325.67 pg/mL
  GM-CSF: 4861.7 pg/mL
  Granzyme B: 2019.57 pg/mL
  IFN-α: 2.54 pg/mL
  IFN-γ: 781.13 pg/mL
  IL-1rα: 2003.66 pg/mL
  IL-1α: 12.29 pg/mL
  IL-1β: 17.76 pg/mL
  IL-2: 80.09 pg/mL
  IL-3: 109.49 pg/mL
  IL-4: 85.48 pg/mL
  IL-5: 32.99 pg/mL
  IL-6: 151.16 pg/mL
  IL-7: 0.74 pg/mL
  IL-10: 3974.26 pg/mL
  IL-12p70: 26.12 pg/mL
  IL-13: 1591.43 pg/mL
  IL-15: 2.07 pg/mL
  IL-17A: 1.97 pg/mL
  IL-17E/IL-25: 0 pg/mL
  IL-33: 17.4 pg/mL
  TNF-α: 4132.48 pg/mL
[1]
  cytotoxic activity against autologous glioblastoma cells (in words): comparable
[2]; replicate 1
  Proliferation (SI) of sorted CD4+ TILs: 1.141
[2]; replicate 2
  Proliferation (SI) of sorted CD4+ TILs: 1.14
[2]; replicate 3
  Proliferation (SI) of sorted CD4+ TILs: 1.525
